# Source: paper PMC6272327, “Discovery of Metal Ions Chelator Quercetin Derivatives with Potent Anti-HCV Activities” (Molecules, 2015)
# Where two headings read alike, the source gives them in different places.
# Key:
# HCV NS5B polymerase = biological target: HCV NS5B polymerase; parameters: method as in PMID 14695815, PMID 15481971, PMID 15149686; conditions: HCV NS5B polymerase inhibition, Figures 1 and 2; cited from earlier work
# [1] = system: HCV infectious virus J399EM; parameters: method as in PMID 22445328; conditions: cited from earlier work; for inhibition against HCV: at 50 μM, previous results
# [2] = Cell viability / cytotoxicity by MTT method; type: cell-based; conditions: human
# Protocol: (§1) The inhibition of HCV by all synthesized quercetin derivatives was evaluated following a previously reported procedure. All newly synthesized compounds were tested in authentic HCV infection/replication system in the human hepatoma cell lines Huh7.5.1 using mycophenolic acid (MPA) as control compound. The cytotoxicity effect of the test compounds was also evaluated in the same cell line by MTT method. Antiviral effect and cytotoxicity effect were summarized as EC50 and CC50 respectively, as well as the selective index (SI) which is the ratio of CC50 to EC50. The stability of quercetin-3-O-ester compounds were also tested in the same buffer as the antiviral activity assay at 37 °C and the hydrolysate was measured by HPLC.
# After the EGFP signal was read, cell viability was measured in the same plate by the MTT [3-(4,5-dimethylthiazol-2-yl)-2,5-diphenyltetrazolium bromide; Sigma-Aldrich, St. Louis, MO, USA] method. Briefly, MTT (1 mg/mL) was dissolved in PBS. Cell culture supernatants were removed and replaced with MTT and further cultured for 4 h; cells were then lysed with 10% sodium dodecyl sulfate (SDS), 50% N,N-dimethylformamide, pH 7.2. OD570 values were read. The percentage of cell death was calculated against the control well without compounds.
# HCV RdRp = system: HCV RdRp; parameters: method as in PMID 25053847; conditions: at the concentration of 20 μM in an enzyme assay; cited from earlier work
# [3] = system: HCV infectious virus J399EM; experiment: Anti-HCV assay in authentic HCV infection/replication system (J399EM EGFP reporter virus) in Huh7.5.1 cells; type: cell-based, hepatitis C virus (JFH1-derived, genotype 2a); conditions: for SI (selectivity index): ratio of CC50 to EC50, Huh7.5.1 cells; for EC50: Hepatitis C virus, Huh-7.5.1, 72 h
# Protocol: as §1
# The biological assays were performed following a previously reported procedure. The Huh7.5.1 cell line and the HCV infectious virus J399EM were kindly provided by Xin-Wen Chen, Wuhan Institute of Virology, Chinese Academy of Sciences. Huh7.5.1 cells were cultured in Dulbecco’s modified Eagle’s medium (DMEM) containing 10% (v/v) fetal bovine serum, 0.5 mg/mL G418, 100 IU/mL penicillin, and […].
# J399EM is an infectious HCV virus derived from the JFH1 virus (genotype 2a) by insertion of enhanced green fluorescent protein (EGFP) into the HCV NS5A region. The establishment of the infectious J399EM HCV virus has been described previously. J399EM was propagated in Huh7.5.1 cells. Briefly, Huh7.5.1 cells were infected with J399EM at MOI = 0.1 and cultured for 4 days. Culture supernatant was collected and filtered through a 0.45 μm membrane and stored at −80 °C as virus stock. Virus titer was tested in Huh7.5.1 cells. Stocks were serially diluted, and the foci forming units (FFU) were determined as the number of fluorescent colonies formed in infected Huh7.5.1.
# All the compounds were first dissolved in DMSO at 50 mM, and then diluted to various concentrations (50 μM, 25 μM, 12.5 μM, 6.3 μM and 3.1 μM). Approximately 1 × 10^4 Huh7.5.1 cells per well were plated in an opaque 96-well tissue culture plate (Costar 3904). The next day, the medium was replaced by J399EM virus at an MOI of 0.3. Four hours later, the virus inoculum was removed and medium containing different concentrations of compounds was added. After an additional 72 h of incubation, the culture medium was removed and the EGFP autofluorescence was measured by using a […] with excitation at 488 nm and emission at 516 nm. Compounds and controls were performed in duplicate and each experiment repeated independently at least twice.
# [4] = Huh7.5.1 cells, MTT, concentration required to reduce cell proliferation by 50%, average of duplicate determinations, read-out: CC50
molecule,measurement,setting,value
O=C(O)/C(O)=C/C(=O)c1ccccc1 [Compound 1a],IC50,HCV NS5B polymerase,5.7 µM
N#Cc1c(Cl)cc(Cl)cc1COc1cccc(C(=O)/C=C(\O)C(=O)O)c1 [Compound 1b],IC50,HCV NS5B polymerase,0.045 µM
"O=C(O)c1nc(-c2cccs2)nc(O)c1O [Compound 1d, dihydroxypyrimidine carboxylic acid]",IC50,HCV NS5B polymerase,2.6 µM
"O=c1c(O)c(-c2ccc(O)c(O)c2)oc2cc(O)cc(O)c12 [Compound 2, quercetin]",EC50,"[1]; anti-HCV activity of quercetin, earlier work of the authors",19.8 µM
same,CC50,[2]; [4],> 50 µM
same,inhibition of HCV RdRp,HCV RdRp,83.7%
same,SI (selectivity index),[3],>2.5
"Nc1ccccc1C(=O)Oc1c(-c2ccc(O)c(O)c2)oc2cc(O)cc(O)c2c1=O [Compound 4c, 2-(3,4-Dihydroxyphenyl)-5,7-dihydroxy-4-oxo-4H-chromen-3-yl 2-aminobenzoate]",melting point,,198 to 199 °C
same,CC50,[2]; [4],> 50 µM
same,EC50,[3],12.8 ± 2.8 µM
same,SI (selectivity index),[3],>3.9
"COc1ccccc1C(=O)Oc1c(-c2ccc(O)c(O)c2)oc2cc(O)cc(O)c2c1=O [Compound 4d, 2-(3,4-Dihydroxyphenyl)-5,7-dihydroxy-4-oxo-4H-chromen-3-yl 2-methoxybenzoate]",melting point,,183 to 184 °C
same,CC50,[2],> 50 µM
same,EC50,[3],11.7 ± 1.3 µM
same,SI (selectivity index),[3],>4.3
"N#Cc1ccccc1C(=O)Oc1c(-c2ccc(O)c(O)c2)oc2cc(O)cc(O)c2c1=O [Compound 4e, 2-(3,4-Dihydroxyphenyl)-5,7-dihydroxy-4-oxo-4H-chromen-3-yl 2-cyanobenzoate]",melting point,,196 to 197 °C
same,CC50,[2],> 50 µM
same,EC50,[3],20.2 ± 8.6 µM
same,SI (selectivity index),[3],>2.5
"O=C(Oc1c(-c2ccc(O)c(O)c2)oc2cc(O)cc(O)c2c1=O)c1cccc(F)c1 [Compound 4f, 2-(3,4-Dihydroxyphenyl)-5,7-dihydroxy-4-oxo-4H-chromen-3-yl 3-fluorobenzoate]",melting point,,211 to 213 °C
same,CC50,[2],> 50 µM
same,EC50,[3],9 ± 4.5 µM
same,SI (selectivity index),[3],>5.6
"Nc1cccc(C(=O)Oc2c(-c3ccc(O)c(O)c3)oc3cc(O)cc(O)c3c2=O)c1 [Compound 4g, 2-(3,4-Dihydroxyphenyl)-5,7-dihydroxy-4-oxo-4H-chromen-3-yl 3-aminobenzoate]",melting point,,216 to 217 °C
same,CC50,[2],> 50 µM
same,EC50,[3],21.1 ± 1.3 µM
same,SI (selectivity index),[3],>2.4
"COc1cccc(C(=O)Oc2c(-c3ccc(O)c(O)c3)oc3cc(O)cc(O)c3c2=O)c1 [Compound 4h, 2-(3,4-Dihydroxyphenyl)-5,7-dihydroxy-4-oxo-4H-chromen-3-yl 3-methoxybenzoate]",melting point,,173 to 174 °C
same,CC50,[2],> 50 µM
same,EC50,[3],15.6 ± 0.3 µM
same,SI (selectivity index),[3],>3.2
"N#Cc1cccc(C(=O)Oc2c(-c3ccc(O)c(O)c3)oc3cc(O)cc(O)c3c2=O)c1 [Compound 4i, 2-(3,4-Dihydroxyphenyl)-5,7-dihydroxy-4-oxo-4H-chromen-3-yl 3-cyanobenzoate]",melting point,,142 to 143 °C
same,CC50,[2],> 50 µM
same,EC50,[3],13.1 ± 1 µM
same,SI (selectivity index),[3],>3.8
"O=C(Oc1c(-c2ccc(O)c(O)c2)oc2cc(O)cc(O)c2c1=O)c1cccc(Cl)c1 [Compound 4j, 2-(3,4-Dihydroxyphenyl)-5,7-dihydroxy-4-oxo-4H-chromen-3-yl 3-chlorobenzoate]",melting point,,> 300 °C
same,CC50,[2],> 50 µM
same,EC50,[3],23 ± 3.2 µM
"O=C(Oc1c(-c2ccc(O)c(O)c2)oc2cc(O)cc(O)c2c1=O)c1ccc(F)cc1 [Compound 4k, 2-(3,4-Dihydroxyphenyl)-5,7-dihydroxy-4-oxo-4H-chromen-3-yl 4-fluorobenzoate]",melting point,,203 to 205 °C
same,CC50,[2],35 ± 2.4 µM
same,EC50,[3],9.7 ± 3.1 µM
same,SI (selectivity index),[3],3.6
"Nc1ccc(C(=O)Oc2c(-c3ccc(O)c(O)c3)oc3cc(O)cc(O)c3c2=O)cc1 [Compound 4l, 2-(3,4-Dihydroxyphenyl)-5,7-dihydroxy-4-oxo-4H-chromen-3-yl 4-aminobenzoate]",melting point,,233 to 234 °C
same,CC50,[2],> 50 µM
same,EC50,[3],23.8 ± 0.8 µM
same,SI (selectivity index),[3],>2.1
"COc1ccc(C(=O)Oc2c(-c3ccc(O)c(O)c3)oc3cc(O)cc(O)c3c2=O)cc1 [Compound 4m, 2-(3,4-Dihydroxyphenyl)-5,7-dihydroxy-4-oxo-4H-chromen-3-yl 4-methoxybenzoate]",melting point,,194 to 195 °C
same,CC50,[2],33.9 ± 3.7 µM
same,EC50,[3],13.6 ± 2.1 µM
same,SI (selectivity index),[3],2.5
"N#Cc1ccc(C(=O)Oc2c(-c3ccc(O)c(O)c3)oc3cc(O)cc(O)c3c2=O)cc1 [Compound 4n, 2-(3,4-Dihydroxyphenyl)-5,7-dihydroxy-4-oxo-4H-chromen-3-yl 4-cyanobenzoate]",melting point,,196 to 197 °C
same,CC50,[2],> 50 µM
same,EC50,[3],11.4 ± 2.3 µM
same,SI (selectivity index),[3],>4.4
"O=C(Oc1c(-c2ccc(O)c(O)c2)oc2cc(O)cc(O)c2c1=O)c1ccc(Cl)cc1 [Compound 4o, 2-(3,4-Dihydroxyphenyl)-5,7-dihydroxy-4-oxo-4H-chromen-3-yl 4-chlorobenzoate]",melting point,,194 to 195 °C
same,CC50,[2],> 50 µM
same,EC50,[3],14.3 ± 2.2 µM
same,SI (selectivity index),[3],>3.5
"CC(C)Oc1c(-c2ccc(O)c(O)c2)oc2cc(O)cc(O)c2c1=O [Compound 12b, 2-(3,4-Dihydroxyphenyl)-5,7-dihydroxy-3-isopropoxy-4H-chromen-4-one]",melting point,,259 to 262 °C
same,CC50,[2],28.8 ± 2 µM
same,EC50,[3],38.9 ± 2.5 µM
same,SI (selectivity index),[3],0.7
"N#CCCCOc1c(-c2ccc(O)c(O)c2)oc2cc(O)cc(O)c2c1=O [Compound 12d, 4-(2-(3,4-Dihydroxyphenyl)-5,7-dihydroxy-4-oxo-4H-chromen-3-yloxy)butanenitrile]",melting point,,169 to 171 °C
same,CC50,[2],> 50 µM
same,EC50,[3],> 50 µM
COc1cc(-c2oc3cc(O)cc(O)c3c(=O)c2O)ccc1O [isorhamnetin],inhibition against HCV,[1],47.3%
O=c1c(O)c(-c2ccc(O)cc2)oc2cc(O)cc(O)c12 [kaempferol],inhibition against HCV,[1],51.9%
meconic acid [Compound 1c],IC50,HCV NS5B polymerase,2.3 µM
